Assay results taken from patent US20250171457A1, “NITROGEN-CONTAINING HETEROCYCLIC COMPOUND HAVING NRF2 ACTIVATION EFFECT” (CHUGAI SEIYAKU KABUSHIKI KAISHA, priority 2022, published 2025).

tested on: Nrf2 transcriptional activity (pARE-Luc reporter) in HepG2 cells; test: In vitro Nrf2 transcriptional activity measurement by ARE-dependent reporter assay in HepG2 cell; assay type: cell-based, human; conditions: Homo sapiens; HepG2 cells transfected with pARE-Luc, 4 hours at 37° C.; luciferase activity of Example 1-54 or Example 17-23 at 3.75 μM defined as 100%
Summary of the method: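 Luminescence readout (Bright-Glo) after 4 h, 37° C compound exposure of HepG2 cells carrying the ARE-luciferase vector pGL4.37. Each well converted to % response versus reference compound at 3.75 μM, and EC50 derived from dose-response curves.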

| Compound | EC50 |
| --- | --- |
| CC[C@@H](c1cccc2c1OCN(C(=O)c1c(Cl)cc(-c3cnn(C)c3)cc1Cl)C2)[C@H](C)C(=O)O [Compound 17-3, (2S,3R)-3-[3-[2,6-Dichloro-4-(1-methylpyrazol-4-yl)benzoyl]-2,4-dihydro-1,3-benzoxazin-8-yl]-2-methylpentanoic acid] | 9.7 nM |
| CC[C@H](CC(=O)O)c1cccc2c1C(=O)NN(C(=O)c1c(Cl)cc(-c3cnn(C)c3)cc1Cl)C2 [Compound 17-4, (3R)-3-[2-[2,6-Dichloro-4-(1-methylpyrazol-4-yl)benzoyl]-4-oxo-1,3-dihydrophthalazin-5-yl]pentanoic acid] | 10 nM |
| CC[C@@H](c1cccc2c1C(=O)NN(C(=O)c1c(Cl)cc(-c3cnn(C)c3)cc1Cl)C2)[C@@H](C)C(=O)O [Compound 17-5, (2R,3R)-3-[2-[2,6-Dichloro-4-(1-methylpyrazol-4-yl)benzoyl]-4-oxo-1,3-dihydrophthalazin-5-yl]-2-methylpentanoic acid] | 17 nM |
| CC[C@@H](c1cccc2c1CCN(C(=O)c1c(Cl)cc(-c3cnn(C)c3)cc1Cl)C2)[C@H](C)C(=O)O [Compound 17-8, (2S,3R)-3-[2-[2,6-Dichloro-4-(1-methylpyrazol-4-yl)benzoyl]-3,4-dihydro-1H-isoquinolin-5-yl]-2-methylpentanoic acid] | 20 nM |
| CCC(CC(=O)O)c1cccc2c1C(=O)NN(C(=O)c1c(Cl)cc(-c3cnn(C)c3)cc1Cl)C2 (stereo not drawn) [Compound 17-9, 3-[2-[2,6-Dichloro-4-(1-methylpyrazol-4-yl)benzoyl]-4-oxo-1,3-dihydrophthalazin-5-yl]pentanoic acid] | 21 nM |
| CC[C@@H](c1cccc2c1CCN(C(=O)c1c(Br)cc(-c3cnn(C)c3)cc1Br)C2)[C@H](C)C(=O)O [Compound 17-10, (2S,3R)-3-[2-[2,6-Dibromo-4-(1-methylpyrazol-4-yl)benzoyl]-3,4-dihydro-1H-isoquinolin-5-yl]-2-methylpentanoic acid] | 21 nM |
| Cc1c(C(CC(=O)O)c2cccc3c2CCN(C(=O)c2c(Cl)cc(-c4cnn(C)c4)cc2Cl)C3)ccc2c1nnn2C (stereo not drawn) [Compound 17-15, 3-[2-[2,6-Dichloro-4-(1-methylpyrazol-4-yl)benzoyl]-3,4-dihydro-1H-isoquinolin-5-yl]-3-(1,4-dimethylbenzotriazol-5-yl)propanoic acid] | 58 nM |
| Cc1c(C(CC(=O)O)c2cccc3c2CON(C(=O)c2c(Cl)cc(-c4cnn(C)c4)cc2Cl)C3)ccc2c1nnn2C (stereo not drawn) [Compound 17-16, 3-[3-[2,6-Dichloro-4-(1-methylpyrazol-4-yl)benzoyl]-1,4-dihydro-2,3-benzoxazin-8-yl]-3-(1,4-dimethylbenzotriazol-5-yl)propanoic acid] | 74 nM |
| Cn1cc(-c2cc(Cl)c(C(=O)N3CCc4c(cccc4-c4ccc(C(=O)O)c(N5CCOCC5)c4)C3)c(Cl)c2)cn1 [Compound 17-18, 4-[2-[2,6-Dichloro-4-(1-methylpyrazol-4-yl)benzoyl]-3,4-dihydro-1H-isoquinolin-5-yl]-2-morpholin-4-ylbenzoic acid] | 97 nM |
| Cn1cc(-c2cc(Cl)c(C(=O)N3CSc4c(cccc4-c4ccc(C(=O)O)c(N5CCOCC5)c4)C3)c(Cl)c2)cn1 [Compound 17-21, 4-[3-[2,6-Dichloro-4-(1-methylpyrazol-4-yl)benzoyl]-2,4-dihydro-1,3-benzothiazin-8-yl]-2-morpholin-4-ylbenzoic acid] | 22 nM |
| COCCOc1cc(Cl)c(C(=O)N2CCc3c(cccc3[C@H](C)[C@H](C)C(=O)O)C2)c(Cl)c1 [Compound 17-23, (2S,3R)-3-[2-[2,6-Dichloro-4-(2-methoxyethoxy)benzoyl]-3,4-dihydro-1H-isoquinolin-5-yl]-2-methylbutanoic acid] | 110 nM |
| COc1cc2c(c(-c3cc(N4C5CCC4COC5)c(C(=O)O)cc3F)c1)OCN(C(=O)c1c(Cl)cc(N3CC(OC)C3)cc1Cl)C2 [Compound 18-7, 4-[3-[2,6-Dichloro-4-(3-methoxyazetidin-1-yl)benzoyl]-6-methoxy-2,4-dihydro-1,3-benzoxazin-8-yl]-5-fluoro-2-(3-oxa-8-azabicyclo[3.2.1]octan-8-yl)benzoic acid] | 17 nM |
| Cc1cc(N2CC3(C2)OCC(C)(C)CO3)cc(C)c1C(=O)N1COc2c(cccc2-c2cc(N3C4CCC3COC4)c(C(=O)O)cc2F)C1 [Compound 19-2, 4-[3-[4-(7,7-Dimethyl-5,9-dioxa-2-azaspiro[3.5]nonan-2-yl)-2,6-dimethylbenzoyl]-2,4-dihydro-1,3-benzoxazin-8-yl]-5-fluoro-2-(3-oxa-8-azabicyclo[3.2.1]octan-8-yl)benzoic acid] | 1.6 nM |
| C[C@@H]1CN(c2cc(F)c(C(=O)N3COc4c(cccc4-c4cc(N5C6CCC5COC6)c(C(=O)O)cc4F)C3)c(Cl)c2)[C@H](C)CN1C [Compound 19-3, 4-[3-[2-Chloro-6-fluoro-4-[(2R,5R)-2,4,5-trimethylpiperazin-1-yl]benzoyl]-2,4-dihydro-1,3-benzoxazin-8-yl]-5-fluoro-2-(3-oxa-8-azabicyclo[3.2.1]octan-8-yl)benzoic acid] | 1.2 nM |
| Cc1cc(N2C[C@@H](C)N(C)C[C@H]2C)cc(Cl)c1C(=O)N1COc2c(cccc2-c2cc(N3C4CCC3COC4)c(C(=O)O)cc2F)C1 [Compound 19-4, 4-[3-[2-Chloro-6-methyl-4-[(2R,5R)-2,4,5-trimethylpiperazin-1-yl]benzoyl]-2,4-dihydro-1,3-benzoxazin-8-yl]-5-fluoro-2-(3-oxa-8-azabicyclo[3.2.1]octan-8-yl)benzoic acid] | 1.9 nM |
| CC1(C)COC2(CN(c3cc(Cl)c(C(=O)N4COc5c(cccc5-c5cc(N6C7CCC6COC7)c(C(=O)O)cc5F)C4)c(C#N)c3)C2)OC1 [Compound 19-5, 4-[3-[2-Chloro-6-cyano-4-(7,7-dimethyl-5,9-dioxa-2-azaspiro[3.5]nonan-2-yl)benzoyl]-2,4-dihydro-1,3-benzoxazin-8-yl]-5-fluoro-2-(3-oxa-8-azabicyclo[3.2.1]octan-8-yl)benzoic acid] | 2.7 nM |

Other lines, results leading:

| EC50 | Compound |
| --- | --- |
| 4.1 nM | C=Cc1cc(C(=O)N2COc3c(cccc3-c3cc(N4CCOCC4)c(C(=O)O)cc3F)C2)c(Cl)cc1OC [Compound 18-1, 4-[3-(2-Chloro-5-ethenyl-4-methoxybenzoyl)-2,4-dihydro-1,3-benzoxazin-8-yl]-5-fluoro-2-morpholin-4-ylbenzoic acid] |
| 5.8 nM | COc1cc(Cl)c(C(=O)N2COc3c(cccc3-c3cc(N4CCOCC4)c(C(=O)O)cc3F)C2)cc1C1CC1 [Compound 18-2, 4-[3-(2-Chloro-5-cyclopropyl-4-methoxybenzoyl)-2,4-dihydro-1,3-benzoxazin-8-yl]-5-fluoro-2-morpholin-4-ylbenzoic acid] |
| 14 nM | COc1cc(Cl)c(C(=O)N2COc3c(cccc3-c3cc(N4CCOCC4)c(C(=O)O)cc3F)C2)cc1C#N [Compound 18-3, 4-[3-(2-Chloro-5-cyano-4-methoxybenzoyl)-2,4-dihydro-1,3-benzoxazin-8-yl]-5-fluoro-2-morpholin-4-ylbenzoic acid] |
| 3.7 nM | CCc1cc(C(=O)N2COc3c(cccc3-c3cc(N4CCOCC4)c(C(=O)O)cc3F)C2)c(Cl)cc1OC [Compound 18-4, 4-[3-(2-Chloro-5-ethyl-4-methoxybenzoyl)-2,4-dihydro-1,3-benzoxazin-8-yl]-5-fluoro-2-morpholin-4-ylbenzoic acid] |
| 12 nM | Cn1cc(-c2cc(Cl)c(C(=O)N3COc4c(cccc4-c4ccc(C(=O)O)c(N5CCSCC5)c4)C3)c(Cl)c2)cn1 [Compound 18-5, 4-[3-[2,6-Dichloro-4-(1-methylpyrazol-4-yl)benzoyl]-2,4-dihydro-1,3-benzoxazin-8-yl]-2-thiomorpholin-4-ylbenzoic acid] |
| 10 nM | CN1CCN(c2cc(Cl)c(C(=O)N3COc4c(cccc4-c4cc(N5CCCC5)c(C(=O)O)cc4F)C3)c(Cl)c2)CC1 [Compound 18-6, 4-[3-[2,6-Dichloro-4-(4-methylpiperazin-1-yl)benzoyl]-2,4-dihydro-1,3-benzoxazin-8-yl]-5-fluoro-2-pyrrolidin-1-ylbenzoic acid] |
| 2.8 nM | Cn1cc(-c2cc(Cl)c(C(=O)N3CNc4c(cccc4-c4cc(N5CCOCC5)c(C(=O)O)cc4F)C3)c(Cl)c2)cn1 [Compound 18-8, 4-[3-[2,6-Dichloro-4-(1-methylpyrazol-4-yl)benzoyl]-2,4-dihydro-1H-quinazolin-8-yl]-5-fluoro-2-morpholin-4-ylbenzoic acid] |
| 23 nM | Cn1cc(-c2cc(Cl)c(C(=O)N3Cc4cccc(-c5cc(N6CCOCC6)c(C(=O)O)cc5F)c4NC3=O)c(Cl)c2)cn1 [Compound 18-9, 4-[3-[2,6-Dichloro-4-(1-methylpyrazol-4-yl)benzoyl]-2-oxo-1,4-dihydroquinazolin-8-yl]-5-fluoro-2-morpholin-4-ylbenzoic acid] |
| 36 nM | O=C(O)c1ccc(-c2cccc3c2OCN(C(=O)c2c(Cl)cc(N4CCC(N5CCOCC5)CC4)cc2Cl)C3)nc1N1CCCCC1 [Compound 18-10, 6-[3-[2,6-Dichloro-4-(4-morpholin-4-ylpiperidin-1-yl)benzoyl]-2,4-dihydro-1,3-benzoxazin-8-yl]-2-piperidin-1-ylpyridine-3-carboxylic acid] |
| 310 nM | Cn1cc(-c2cc(Cl)c(C(=O)N3CCc4c(cccc4-c4ccc(C(=O)O)c(N5CCCCC5)n4)C3)c(Cl)c2)cn1 [Compound 18-11, 6-[2-[2,6-Dichloro-4-(1-methylpyrazol-4-yl)benzoyl]-3,4-dihydro-1H-isoquinolin-5-yl]-2-piperidin-1-ylpyridine-3-carboxylic acid] |
| 24 nM | Cn1cc(-c2cc(Cl)c(C(=O)N3COc4c(ccnc4-c4ccc(C(=O)O)c(N5CCOCC5)c4)C3)c(Cl)c2)cn1 [Compound 18-12, 4-[3-[2,6-Dichloro-4-(1-methylpyrazol-4-yl)benzoyl]-2,4-dihydropyrido[4,3-e][1,3]oxazin-8-yl]-2-morpholin-4-ylbenzoic acid] |
